Literature values, collected in US10912848B2, “Dual-purpose PAT/ultrasound contrast agent bound with nanoparticles containing drug and method for preparing same” (IMGT CO, LTD., priority 2014, dated 2021).
Like-named read-outs stand apart in the source and are kept apart here.

Conditions: 25° C.

CC(=O)Oc1ccccc1C(=O)O [aspirin]
volume of solvent required to dissolve 1 g of drug (H2O): 300 mL | volume of solvent required to dissolve 1 g of drug (ethanol): 5 mL
